In ChEMBL document CHEMBL4190297, “Cafestol, a Bioactive Substance in Coffee, Has Antidiabetic Properties in KKAy Mice” (J Nat Prod, 2017):
Calls of active or inactive are those of the source. The calls are words filed in the database; no cut-off is given here.

Experiments:
[1] = organism: Mus musculus; assay: Antidiabetic activity in KK-Ay diabetic mouse model assessed as reduction in HOMA-IR levels at 0.4 mg added daily to normal chow pellets for 10 weeks; assay type: functional, organism-based
[2] = organism: Mus musculus; assay: Antidiabetic activity in KK-Ay diabetic mouse model assessed as non-fasting blood glucose level at 1.1 mg added daily to normal chow pellets for 10 weeks (reference value: 26.2 +/- 1.2 mmol/L); assay type: functional
[3] = organism: Mus musculus; assay: Antidiabetic activity in KK-Ay diabetic mouse model assessed as reduction in plasma glucagon levels at 1.1 mg added daily to normal chow pellets for 10 weeks relative to control by radioimmunoassay; assay type: functional; parameters: scale not given: the % may be the effect or the level left
[4] = organism: Mus musculus; assay: Induction of […] glucose-stimulated insulin secretion in pancreatic islets isolated from KK-Ay diabetic mouse model at 1.1 mg added daily to normal chow pellets for 10 weeks followed by glucose stimulation of isolated pancreatic islets for 1 hr by radioimmunoassay relative to control; assay type: functional
[5] = organism: Mus musculus; assay: Effect on Lipc mRNA expression levels in liver of KK-Ay diabetic mouse model at 0.4 to 1.1 mg added daily to normal chow pellets for 10 weeks by qRT-PCR analysis; assay type: functional, organism-based
[6] = organism: Mus musculus; assay: Effect on Abca1 mRNA expression levels in liver of KK-Ay diabetic mouse model at 0.4 to 1.1 mg added daily to normal chow pellets for 10 weeks by qRT-PCR analysis; assay type: functional, organism-based
[7] = organism: Mus musculus; assay: Effect on Acaca mRNA expression levels in adipose tissue of KK-Ay diabetic mouse model at 0.4 to 1.1 mg added daily to normal chow pellets for 10 weeks by qRT-PCR analysis; assay type: functional, organism-based
[8] = organism: Mus musculus; assay: Effect on Acaca mRNA expression levels in liver of KK-Ay diabetic mouse model at 0.4 to 1.1 mg added daily to normal chow pellets for 10 weeks by qRT-PCR analysis; assay type: functional, organism-based
[9] = organism: Mus musculus; assay: Antidiabetic activity in KK-Ay diabetic mouse model assessed as non-fasting blood glucose level at 0.4 mg added daily to normal chow pellets for 10 weeks (reference value: 26.2 +/- 1.2 mmol/L); assay type: functional
[10] = organism: Mus musculus; assay: Effect on SOD2 mRNA expression levels in muscle of KK-Ay diabetic mouse model at 0.4 to 1.1 mg added daily to normal chow pellets for 10 weeks by qRT-PCR analysis; assay type: functional, organism-based
[11] = organism: Mus musculus; assay: Effect on Pi3K mRNA expression levels in liver of KK-Ay diabetic mouse model at 0.4 to 1.1 mg added daily to normal chow pellets for 10 weeks by qRT-PCR analysis; assay type: functional, organism-based
[12] = organism: Mus musculus; assay: Effect on Hprt1 mRNA expression levels in adipose tissue of KK-Ay diabetic mouse model at 0.4 to 1.1 mg added daily to normal chow pellets for 10 weeks by qRT-PCR analysis; assay type: functional, organism-based
[13] = organism: Mus musculus; assay: Effect on IRS2 mRNA expression levels in liver of KK-Ay diabetic mouse model at 0.4 to 1.1 mg added daily to normal chow pellets for 10 weeks by qRT-PCR analysis; assay type: functional, organism-based
[14] = organism: Mus musculus; assay: Antidiabetic activity in KK-Ay diabetic mouse model assessed as effect on total cholesterol level at 0.14 to 1.1 mg added daily to normal chow pellets for 10 weeks by colorimetric analysis; assay type: functional, organism-based
[15] = organism: Mus musculus; assay: Effect on PPARGC1alpha mRNA expression levels in adipose tissue of KK-Ay diabetic mouse model at 0.4 to 1.1 mg added daily to normal chow pellets for 10 weeks by qRT-PCR analysis; assay type: functional, organism-based
[16] = organism: Mus musculus; assay: Effect on Lipc mRNA expression levels in adipose tissue of KK-Ay diabetic mouse model at 0.4 to 1.1 mg added daily to normal chow pellets for 10 weeks by qRT-PCR analysis; assay type: functional, organism-based
[17] = organism: Mus musculus; assay: Effect on AMPKalpha2 mRNA expression levels in liver of KK-Ay diabetic mouse model at 0.4 to 1.1 mg added daily to normal chow pellets for 10 weeks by qRT-PCR analysis; assay type: functional, organism-based
[18] = organism: Mus musculus; assay: Effect on CD36 mRNA expression levels in muscle of KK-Ay diabetic mouse model at 0.4 to 1.1 mg added daily to normal chow pellets for 10 weeks by qRT-PCR analysis; assay type: functional, organism-based
[19] = organism: Mus musculus; assay: Effect on SOD1 mRNA expression levels in liver of KK-Ay diabetic mouse model at 0.4 to 1.1 mg added daily to normal chow pellets for 10 weeks by qRT-PCR analysis; assay type: functional, organism-based
[20] = organism: Mus musculus; assay: Effect on GLUT2 mRNA expression levels in adipose tissue of KK-Ay diabetic mouse model at 0.4 to 1.1 mg added daily to normal chow pellets for 10 weeks by qRT-PCR analysis; assay type: functional, organism-based
[21] = organism: Mus musculus; assay: Effect on JNK1 mRNA expression levels in liver of KK-Ay diabetic mouse model at 0.4 to 1.1 mg added daily to normal chow pellets for 10 weeks by qRT-PCR analysis; assay type: functional, organism-based
[22] = organism: Mus musculus; assay: Effect on InsR mRNA expression levels in adipose tissue of KK-Ay diabetic mouse model at 0.4 to 1.1 mg added daily to normal chow pellets for 10 weeks by qRT-PCR analysis; assay type: functional, organism-based
[23] = organism: Mus musculus; assay: Effect on Pi3K mRNA expression levels in adipose tissue of KK-Ay diabetic mouse model at 0.4 to 1.1 mg added daily to normal chow pellets for 10 weeks by qRT-PCR analysis; assay type: functional, organism-based
[24] = organism: Mus musculus; assay: Effect on Mtor mRNA expression levels in liver of KK-Ay diabetic mouse model at 0.4 to 1.1 mg added daily to normal chow pellets for 10 weeks by qRT-PCR analysis; assay type: functional, organism-based
[25] = organism: Mus musculus; assay: Effect on IRS2 mRNA expression levels in adipose tissue of KK-Ay diabetic mouse model at 0.4 to 1.1 mg added daily to normal chow pellets for 10 weeks by qRT-PCR analysis; assay type: functional, organism-based
[26] = organism: Mus musculus; assay: Effect on Adipor1 mRNA expression levels in adipose tissue of KK-Ay diabetic mouse model at 0.4 to 1.1 mg added daily to normal chow pellets for 10 weeks by qRT-PCR analysis; assay type: functional, organism-based
[27] = organism: Mus musculus; assay: Effect on LXRalpha mRNA expression levels in liver of KK-Ay diabetic mouse model at 0.4 to 1.1 mg added daily to normal chow pellets for 10 weeks by qRT-PCR analysis; assay type: functional, organism-based
[28] = organism: Mus musculus; assay: Effect on FAS mRNA expression levels in liver of KK-Ay diabetic mouse model at 0.4 to 1.1 mg added daily to normal chow pellets for 10 weeks by qRT-PCR analysis; assay type: functional, organism-based
[29] = organism: Mus musculus; assay: Effect on SOD1 mRNA expression levels in muscle of KK-Ay diabetic mouse model at 0.4 to 1.1 mg added daily to normal chow pellets for 10 weeks by qRT-PCR analysis; assay type: functional, organism-based
[30] = organism: Mus musculus; assay: Effect on SOD1 mRNA expression levels in adipose tissue of KK-Ay diabetic mouse model at 0.4 to 1.1 mg added daily to normal chow pellets for 10 weeks by qRT-PCR analysis; assay type: functional, organism-based
[31] = organism: Mus musculus; assay: Effect on Mtor mRNA expression levels in muscle of KK-Ay diabetic mouse model at 0.4 to 1.1 mg added daily to normal chow pellets for 10 weeks by qRT-PCR analysis; assay type: functional, organism-based
[32] = organism: Mus musculus; assay: Effect on Abca1 mRNA expression levels in adipose tissue of KK-Ay diabetic mouse model at 0.4 to 1.1 mg added daily to normal chow pellets for 10 weeks by qRT-PCR analysis; assay type: functional, organism-based
[33] = organism: Mus musculus; assay: Effect on FABP4 mRNA expression levels in adipose tissue of KK-Ay diabetic mouse model at 0.4 to 1.1 mg added daily to normal chow pellets for 10 weeks by qRT-PCR analysis; assay type: functional, organism-based

With C[C@@]12CCc3occc3[C@H]1CC[C@@]13C[C@H](CC[C@H]12)[C@@](O)(CO)C3 as the compound, how does the Activity [1] read?
Its Activity is “inactive”.

And the Activity [2]?
The Activity was 19.7 mmol/L.

What about the Activity [3] of the same compound?
Its Activity is 20%.

And the Activity [4]?
The Activity was 75%.

And the Activity [5]?
Its Activity is “inactive”.

What about the Activity [6] of the same compound?
Its Activity is “inactive”.

What about the Activity [7] of the same compound?
Its Activity is “inactive”.

And the Activity [8]?
Its Activity is “inactive”.

And the Activity [9]?
Its Activity is 17.3 mmol/L.

And the Activity [10]?
Its Activity is “inactive”.

What about the Activity [11] of the same compound?
Its Activity is “inactive”.

And the Activity [12]?
Its Activity is “inactive”.

What about the Activity [13] of the same compound?
Its Activity is “inactive”.

What about the Activity [14] of the same compound?
The Activity was “inactive”.

And the Activity [15]?
The Activity was “inactive”.

What about the Activity [16] of the same compound?
The Activity was “inactive”.

And the Activity [17]?
The Activity was “inactive”.

And the Activity [18]?
The Activity was “inactive”.

What about the Activity [19] of the same compound?
The Activity was “inactive”.

What about the Activity [20] of the same compound?
The Activity was “inactive”.

What about the Activity [21] of the same compound?
Its Activity is “inactive”.

What about the Activity [22] of the same compound?
The Activity was “inactive”.

What about the Activity [23] of the same compound?
Its Activity is “inactive”.

And the Activity [24]?
Its Activity is “inactive”.

What about the Activity [25] of the same compound?
Its Activity is “inactive”.

And the Activity [26]?
The Activity was “inactive”.

What about the Activity [27] of the same compound?
The Activity was “inactive”.

And the Activity [28]?
The Activity was “inactive”.

What about the Activity [29] of the same compound?
Its Activity is “inactive”.

What about the Activity [30] of the same compound?
The Activity was “inactive”.

And the Activity [31]?
Its Activity is “inactive”.

What about the Activity [32] of the same compound?
Its Activity is “inactive”.

And the Activity [33]?
The Activity was “inactive”.
